Entries after “also recorded” stand apart in the source; their conditions may differ. Read-outs that look alike come from different tables or passages of the source.

One data set has as its system vaccinia virus. Kind of data set: microbe, parasite or virus in culture. In kind it is cell-based, Vaccinia virus (WR strain).
Another data set has as its system BSC-1 cells. Kind of data set: Cytotoxicity (CC50).
In the next data set the test system is mD4-VV hybrid virus. The data set can be described thus: microbe, parasite or virus in culture. In kind it is cell-based. Conditions: read-out: IC50 mD4-VV hybrid virus.
The nature of a further data set: Cytotoxicity (CC50). Conditions: African green monkey, BSC-1 cells.
The next data set deals with recombinant VACV (vL1Ri). In kind it is cell-based, vaccinia virus in BSC-1 cells.
Setting [1] is: Table 5, mean ± SEM of triplicates.
Setting [2] is: Orthopoxvirus vaccinia, BSC-1, read-out: IC50 (antiviral).

As to “6-Methyl-3-(phenylthio)-1H-indole-2-carboxylate [Compound 29]”, in the data set with vaccinia virus (read-out: IC50 (antiviral)), the IC50 stood at 10 µM. Further, in the data set on BSC-1 cells (read-out: CC50 (cytotoxicity), BSC-1 cells, NA = not active (assays requiring >200 μM)), the CC50 worked out at 26 µM.
Compound `CCCCCCNC(=O)CCc1[nH]c2cc(C)ccc2c1Sc1cc(Cl)cc(Cl)c1` [Compound 24e, 3-(3-((3,5-Dichlorophenyl)thio)-6-methyl-1H-indol-2-yl)-N-hexylpropanamide] displayed a CC50 in the data set with BSC-1 cells (setting [1]) of 27 ± 4 µM.
In the case of `Cc1ccc2c(Sc3cc(Cl)cc(Cl)c3)c(CCC(N)=O)[nH]c2c1` [Compound 24a, 3-(3-((3,5-Dichlorophenyl)thio)-6-methyl-1H-indol-2-yl)propanamide], the “SI (selectivity index = CC50/IC50)” value in the data set with vaccinia virus worked out at 374. Further, the IC50 in the data set with vaccinia virus (Orthopoxvirus vaccinia) was 0.042 µM; in the data set with mD4-VV hybrid virus, 0.03 µM. In addition, in the data set on BSC-1 cells (setting [1]), the CC50 is 16 ± 5 µM. For the same compound, in the data set on BSC-1 cells (cells treated 9 h, FIG. 7A), the “cytotoxicity within experimental time frame” value was “minimal cytotoxicity”.
On to `Cc1ccc2c(Sc3cc(Cl)cc(Cl)c3)c(CCCC(N)=O)[nH]c2c1` [Compound 24c, 4-(3-((3,5-Dichlorophenyl)thio)-6-methyl-1H-indol-2-yl)butanamide], for which, in the data set on vaccinia virus, the “SI (selectivity index = CC50/IC50)” value stood at 115 and the “fold decrease in potency / loss of activity compared to 24a” value is around 5 fold. This compound yielded an IC50 with vaccinia virus (Orthopoxvirus vaccinia) of 0.208 µM. The IC50 with mD4-VV hybrid virus is 0.199 µM. This compound came in with a CC50 in the data set “Cytotoxicity (CC50)” of 243 ± 2 µM.
As for `Cc1ccc2c(Sc3cc(Cl)cc(Cl)c3)c(CCC(=O)O)[nH]c2c1` [Compound 24d, 3-(3-((3,5-Dichlorophenyl)thio)-6-methyl-1H-indol-2-yl)propanoic acid], in the data set on vaccinia virus, the “SI (selectivity index = CC50/IC50)” value was 152 and the “fold decrease in potency / loss of activity compared to 24a” value is given as around 5 fold. The same compound gave an IC50 in the data set with vaccinia virus (Orthopoxvirus vaccinia) of 0.244 µM. The compound further displayed a CC50 in the data set on BSC-1 cells (setting [1]) of 36 ± 14 µM.
With `Cc1ccc2c(Sc3cc(Cl)cc(Cl)c3)c(CC(N)=O)[nH]c2c1` [Compound 24b, 2-(3-((3,5-Dichlorophenyl)thio)-6-methyl-1H-indol-2-yl)acetamide], the “SI (selectivity index = CC50/IC50)” value in the data set with vaccinia virus stood at 570. Further, the IC50 amounted to 0.046 µM in the data set on vaccinia virus (Orthopoxvirus vaccinia) and 0.097 µM in the data set on mD4-VV hybrid virus. In addition, in the data set with BSC-1 cells (setting [1]), the CC50 stood at 26 ± 3 µM.
On to `CCc1ccc2c(Sc3cc(Cl)cc(Cl)c3)c(C(=O)O)[nH]c2c1` [Compound 25, 3-((3,5-Dichlorophenyl)thio)-6-ethyl-1H-indole-2-carboxylic acid], for which, in the data set with vaccinia virus (setting [2]), the IC50 stood at 9 µM. In the data set “Cytotoxicity (CC50)”, the CC50 came out at 63 µM.
On to `Cc1ccc2c(Sc3cc(Cl)c(Cl)cc3Cl)c(C(=O)O)[nH]c2c1` [Compound 30, 6-Methyl-3-((2,4,5-trichlorophenyl)thio)-1H-indole-2-carboxylic acid], for which the half-inhibitory concentration (IC50) in the data set on vaccinia virus (setting [2]) was determined as 25 µM. The same compound had a CC50 in the data set “Cytotoxicity (CC50)” of 78 µM.
The matching figures for `COC(=O)c1[nH]c2c(C)cccc2c1Sc1ccc(Cl)cc1` [Compound 8, Methyl 3-((4-chlorophenyl)thio)-7-methyl-1H-indole-2-carboxylate]: 23 µM and 32 µM.
Turning to `O=C(O)c1[nH]c2ccccc2c1Sc1cc(Cl)cc(Cl)c1` [Compound 26, 3-((3,5-Dichlorophenyl)thio)-1H-indole-2-carboxylic acid], the “fold decrease in activity compared to 24” value in the data set on vaccinia virus is recorded as around 6 fold. In addition, the half-inhibitory concentration (IC50) with vaccinia virus (setting [2]) worked out at 43 µM. The CC50 in the data set “Cytotoxicity (CC50)” came out at 133 µM.
As for `Nc1ccn(C[C@@H](CO)OCP(=O)(O)O)c(=O)n1` [CDV, cidofovir], the “EGFP expression (late reporter gene)” value with recombinant VACV (vL1Ri) is “equally effective at a higher dose; also recorded: clearly showed suppression of EGFP when pretreated”. In the data set on recombinant VACV (vL1Ri) (8 h), the “EGFP expression, compound added after virus adsorption” value was “comparable EGFP expression and CPE to DMSO vehicle; also recorded: EGFP expression comparable to vehicle-treatment”.

For orientation: IC50 means the midpoint of a concentration-inhibition curve. One may read the CC50 as the concentration at which the toxic effect on the cells reaches its halfway point.

For the origin of these results see patent publication US9233921B2, “Potent poxvirus inhibitor” (priority 2013, dated 2016).
